# Measurements reported in ChEMBL document CHEMBL3044713, “Synthesis, characterization, and pharmacological evaluation of new GABA analogs as potent anticonvulsant agents” (Med Chem Res, 2012).
# The source made the active and inactive calls. The calls are words filed in the database; no cut-off is given here.
# Columns and labels:
# Mus musculus [1] = test: Anticonvulsant activity in ip dosed Mus musculus albino (mouse) assessed as protection against subcutaneous strychnine-induced seizures after 0.5 hr; type: functional; conditions: read-out: MED
# Mus musculus [2] = test: Anticonvulsant activity in Mus musculus albino (mouse) assessed as protection against ip picrotoxin-induced seizures at 300 mg/kg, ip after 0.5 hr; type: functional, organism-based; design: dose 300 mg/kg
# Mus musculus [3] = test: Anticonvulsant activity in Mus musculus albino (mouse) assessed as protection against subcutaneous pentylenetetrazole-induced seizures at 300 mg/kg, ip after 0.5 hr; type: functional, organism-based; design: dose 300 mg/kg
# Mus musculus [4] = test: Anticonvulsant activity in Mus musculus albino (mouse) assessed as protection against maximal electroshock-induced seizures at 300 mg/kg, ip after 0.5 hr; type: functional, organism-based; design: dose 300 mg/kg
# Mus musculus [5] = test: Anticonvulsant activity in Mus musculus albino (mouse) assessed as protection against subcutaneous strychnine-induced seizures at 300 mg/kg, ip after 4 hr; type: functional, organism-based; design: dose 300 mg/kg
# Mus musculus [6] = test: Neurotoxicity in Mus musculus albino (mouse) assessed as motor impairment at 300 mg/kg, ip after 0.5 hr by rotorod test; type: toxicity, organism-based; design: dose 300 mg/kg, route intraperitoneal; conditions: in vivo
# Mus musculus [7] = test: Anticonvulsant activity in Mus musculus albino (mouse) assessed as protection against ip picrotoxin-induced seizures at 300 mg/kg, ip after 4 hr; type: functional, organism-based; design: dose 300 mg/kg
# Mus musculus [8] = test: Anticonvulsant activity in Mus musculus albino (mouse) assessed as protection against subcutaneous pentylenetetrazole-induced seizures at 300 mg/kg, ip after 4 hr; type: functional, organism-based; design: dose 300 mg/kg
# Mus musculus [9] = test: Neurotoxicity in Mus musculus albino (mouse) assessed as motor impairment at 300 mg/kg, ip after 4 hr by rotorod test; type: toxicity, organism-based; design: dose 300 mg/kg, route intraperitoneal; conditions: in vivo
# [10] = Neurotoxicity in ip dosed Mus musculus albino (mouse) assessed as motor impairment after 0.5 hr by rotorod test; type: toxicity, organism-based; conditions: in vivo
# [11] = Neurotoxicity in ip dosed Mus musculus albino (mouse) assessed as motor impairment after 4 hr by rotorod test; type: toxicity, organism-based; conditions: in vivo
# Mus musculus [12] = test: Anticonvulsant activity in Mus musculus albino (mouse) assessed as protection against subcutaneous strychnine-induced seizures at 300 mg/kg, ip after 0.5 hr; type: functional, organism-based; design: dose 300 mg/kg
# Mus musculus [13] = test: Anticonvulsant activity in ip dosed Mus musculus albino (mouse) assessed as protection against ip picrotoxin-induced seizures after 0.5 hr; type: functional; conditions: read-out: MED
# Mus musculus [14] = test: Anticonvulsant activity in ip dosed Mus musculus albino (mouse) assessed as protection against subcutaneous pentylenetetrazole-induced seizures after 0.5 hr; type: functional; conditions: read-out: MED
# Mus musculus [15] = test: Anticonvulsant activity in ip dosed Mus musculus albino (mouse) assessed as protection against ip picrotoxin-induced seizures after 4 hr; type: functional; conditions: read-out: MED
# Mus musculus [16] = test: Anticonvulsant activity in ip dosed Mus musculus albino (mouse) assessed as protection against maximal electroshock-induced seizures after 0.5 hr; type: functional; conditions: read-out: MED
# Mus musculus [17] = test: Anticonvulsant activity in ip dosed Mus musculus albino (mouse) assessed as protection against subcutaneous pentylenetetrazole-induced seizures after 4 hr; type: functional; conditions: read-out: MED
# Mus musculus [18] = test: Anticonvulsant activity in ip dosed Mus musculus albino (mouse) assessed as protection against subcutaneous strychnine-induced seizures after 4 hr; type: functional; conditions: read-out: MED
SMILES,minimal effective dose (Mus musculus [1]),Activity (Mus musculus [2]),Activity (Mus musculus [3]),Activity (Mus musculus [4]),Activity (Mus musculus [5]),Activity (Mus musculus [6]),Activity (Mus musculus [7]),Activity (Mus musculus [8]),Activity (Mus musculus [9]),MTD at 0.5 h [10],MTD at 4 h [11],Activity (Mus musculus [12]),minimal effective dose (Mus musculus [13]),minimal effective dose (Mus musculus [14]),minimal effective dose (Mus musculus [15]),minimal effective dose (Mus musculus [16]),minimal effective dose (Mus musculus [17]),minimal effective dose (Mus musculus [18])
O=C(CCCN1C(=O)c2ccccc2C1=O)Nc1ccc(I)cc1,100 mg/kg,inactive,inactive,inactive,inactive,Non-toxic,inactive,inactive,Non-toxic,,,,,,,,,
O=C(CCCN1C(=O)c2ccccc2C1=O)Nc1ccc([N+](=O)[O-])cc1,,inactive,inactive,inactive,inactive,,inactive,inactive,,100 mg/kg,100 mg/kg,inactive,,,,,,
O=C(CCCN1C(=O)c2ccccc2C1=O)Nc1ccc(F)cc1F,100 mg/kg,,inactive,inactive,inactive,Non-toxic,inactive,inactive,Non-toxic,,,,300 mg/kg,,,,,
O=C(CCCN1C(=O)c2ccccc2C1=O)Nc1ccc(Br)cc1,,,,inactive,inactive,,,inactive,Non-toxic,100 mg/kg,,inactive,100 mg/kg,30 mg/kg,300 mg/kg,,,
CCC1(C)CC(=O)NC1=O (centres undefined) [ETHOSUXIMIDE],,inactive,inactive,,inactive,Non-toxic,inactive,inactive,Non-toxic,,,inactive,,,,300 mg/kg,,
O=C(CCCN1C(=O)c2ccccc2C1=O)Nc1ccc(F)cc1,300 mg/kg,,inactive,inactive,inactive,Non-toxic,inactive,inactive,Non-toxic,,,,300 mg/kg,,,,,
O=C1NC(=O)C(c2ccccc2)(c2ccccc2)N1,,inactive,inactive,inactive,inactive,,inactive,inactive,,,,inactive,,,,,,
O=C(CCCN1C(=O)c2ccccc2C1=O)Nc1ccc(Cl)cc1I,100 mg/kg,,inactive,inactive,inactive,,inactive,inactive,Non-toxic,300 mg/kg,,,300 mg/kg,,,,,
COc1ccc(NC(=O)CCCN2C(=O)c3ccccc3C2=O)cc1,,,inactive,inactive,inactive,Non-toxic,inactive,inactive,Non-toxic,,,inactive,300 mg/kg,,,,,
O=C(CCCN1C(=O)c2ccccc2C1=O)Nc1ccc(Cl)cc1Cl,300 mg/kg,,inactive,inactive,inactive,Non-toxic,inactive,inactive,Non-toxic,,,inactive,300 mg/kg,,,,,
Cc1ccc(NC(=O)CCCN2C(=O)c3ccccc3C2=O)cc1,,,inactive,inactive,inactive,Non-toxic,inactive,,Non-toxic,,,inactive,300 mg/kg,,,,100 mg/kg,
O=C(CCCN1C(=O)c2ccccc2C1=O)Nc1ccc(Cl)cc1,100 mg/kg,,inactive,inactive,,Non-toxic,inactive,inactive,Non-toxic,,,,300 mg/kg,,,,,300 mg/kg
O=C(CCCN1C(=O)c2ccccc2C1=O)Nc1ccccc1,,inactive,inactive,,inactive,Non-toxic,inactive,inactive,,,100 mg/kg,inactive,,,,300 mg/kg,,
Cc1cc(Cl)ccc1NC(=O)CCCN1C(=O)c2ccccc2C1=O,300 mg/kg,,,inactive,inactive,Non-toxic,,,Non-toxic,,,,100 mg/kg,100 mg/kg,300 mg/kg,,300 mg/kg,
CCc1ccc(NC(=O)CCCN2C(=O)c3ccccc3C2=O)cc1,,,,inactive,,Non-toxic,,,Non-toxic,,,inactive,100 mg/kg,100 mg/kg,100 mg/kg,,300 mg/kg,100 mg/kg
